Experiments:
[1] = molecular target: T1, Transcription regulator protein BACH1 (Homo sapiens) (UniProt O14867); test: Inhibition of Bach1 in normal human lung fibroblasts assessed as induction of HMOX protein expression at 5 uM incubated for 16 to 18 hrs by immunostaining relative to control
T1 sequence (whole entry): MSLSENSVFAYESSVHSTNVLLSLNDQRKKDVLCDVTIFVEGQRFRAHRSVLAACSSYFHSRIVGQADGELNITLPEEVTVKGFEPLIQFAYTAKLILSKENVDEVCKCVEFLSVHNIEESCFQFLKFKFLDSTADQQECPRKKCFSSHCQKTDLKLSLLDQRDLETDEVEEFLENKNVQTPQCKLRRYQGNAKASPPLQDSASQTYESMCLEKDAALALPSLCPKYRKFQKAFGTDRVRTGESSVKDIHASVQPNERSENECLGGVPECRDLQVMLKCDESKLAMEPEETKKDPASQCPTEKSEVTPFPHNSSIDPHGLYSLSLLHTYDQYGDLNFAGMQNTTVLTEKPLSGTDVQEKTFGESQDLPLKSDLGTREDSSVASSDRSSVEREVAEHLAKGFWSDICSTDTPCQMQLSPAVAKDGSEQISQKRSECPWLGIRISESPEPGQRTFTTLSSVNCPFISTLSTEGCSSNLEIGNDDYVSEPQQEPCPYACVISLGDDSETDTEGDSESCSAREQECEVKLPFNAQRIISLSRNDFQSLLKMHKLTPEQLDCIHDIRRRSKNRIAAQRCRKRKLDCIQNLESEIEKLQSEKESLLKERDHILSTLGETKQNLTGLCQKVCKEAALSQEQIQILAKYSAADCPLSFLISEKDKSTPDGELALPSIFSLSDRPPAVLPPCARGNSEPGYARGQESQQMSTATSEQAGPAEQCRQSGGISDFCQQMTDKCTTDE

[2] = molecular target: T1, Transcription regulator protein BACH1 (Homo sapiens); test: Inhibition of Bach1 in normal human lung fibroblasts assessed as induction of HMOX protein expression at 0.039 uM incubated for 16 to 18 hrs in presence of 0.0048 uM Nrf2 activator Bardoxolone methyl by immunostaining relative to control
[3] = molecular target: T1, Transcription regulator protein BACH1 (Homo sapiens); test: Inhibition of Bach1 in normal human lung fibroblasts assessed as induction of HMOX protein expression at 0.156 uM incubated for 16 to 18 hrs in presence of 0.0097 uM Nrf2 activator Bardoxolone methyl by immunostaining relative to control
[4] = molecular target: T1, Transcription regulator protein BACH1 (Homo sapiens); test: Inhibition of Bach1 in normal human lung fibroblasts assessed as induction of HMOX protein expression at 0.312 uM incubated for 16 to 18 hrs in presence of 0.0097 uM Nrf2 activator Bardoxolone methyl by immunostaining relative to control
[5] = molecular target: T1, Transcription regulator protein BACH1 (Homo sapiens); test: Inhibition of Bach1 in normal human lung fibroblasts assessed as induction of HMOX protein expression at 0.019 uM incubated for 16 to 18 hrs in presence of 0.019 uM Nrf2 activator Bardoxolone methyl by immunostaining relative to control
[6] = molecular target: T1, Transcription regulator protein BACH1 (Homo sapiens); test: Inhibition of Bach1 in normal human lung fibroblasts assessed as induction of HMOX protein expression at 0.039 uM incubated for 16 to 18 hrs in presence of 0.019 uM Nrf2 activator Bardoxolone methyl by immunostaining relative to control
[7] = molecular target: T1, Transcription regulator protein BACH1 (Homo sapiens); test: Inhibition of Bach1 in normal human lung fibroblasts assessed as induction of HMOX protein expression at 0.625 uM incubated for 16 to 18 hrs in presence of 0.019 uM Nrf2 activator Bardoxolone methyl by immunostaining relative to control
[8] = molecular target: T1, Transcription regulator protein BACH1 (Homo sapiens); test: Inhibition of Bach1 in normal human lung fibroblasts assessed as induction of HMOX protein expression at 1.25 uM incubated for 16 to 18 hrs in presence of 0.019 uM Nrf2 activator Bardoxolone methyl by immunostaining relative to control
[9] = molecular target: T1, Transcription regulator protein BACH1 (Homo sapiens); test: Inhibition of Bach1 in normal human lung fibroblasts assessed as induction of HMOX protein expression at 0.625 uM incubated for 16 to 18 hrs in presence of 0.039 uM Nrf2 activator Bardoxolone methyl by immunostaining relative to control
[10] = molecular target: T1, Transcription regulator protein BACH1 (Homo sapiens); test: Inhibition of Bach1 in normal human lung fibroblasts assessed as induction of HMOX protein expression at 1.25 uM incubated for 16 to 18 hrs in presence of 0.039 uM Nrf2 activator Bardoxolone methyl by immunostaining relative to control
[11] = molecular target: T1, Transcription regulator protein BACH1 (Homo sapiens); test: Inhibition of Bach1 in normal human lung fibroblasts assessed as induction of HMOX protein expression at 0.039 uM incubated for 16 to 18 hrs in presence of 0.078 uM Nrf2 activator Bardoxolone methyl by immunostaining relative to control
[12] = molecular target: T1, Transcription regulator protein BACH1 (Homo sapiens); test: Inhibition of Bach1 in normal human lung fibroblasts assessed as induction of HMOX protein expression at 0.156 uM incubated for 16 to 18 hrs in presence of 0.078 uM Nrf2 activator Bardoxolone methyl by immunostaining relative to control
[13] = molecular target: T1, Transcription regulator protein BACH1 (Homo sapiens); test: Inhibition of Bach1 in normal human lung fibroblasts assessed as induction of HMOX protein expression at 0.312 uM incubated for 16 to 18 hrs in presence of 0.078 uM Nrf2 activator Bardoxolone methyl by immunostaining relative to control
[14] = molecular target: T1, Transcription regulator protein BACH1 (Homo sapiens); test: Inhibition of Bach1 in normal human lung fibroblasts assessed as induction of HMOX protein expression at 1.25 uM incubated for 16 to 18 hrs in presence of 0.078 uM Nrf2 activator Bardoxolone methyl by immunostaining relative to control
[15] = molecular target: T1, Transcription regulator protein BACH1 (Homo sapiens); test: Inhibition of Bach1 in normal human lung fibroblasts assessed as induction of HMOX protein expression at 0.312 uM incubated for 16 to 18 hrs in presence of 0.156 uM Nrf2 activator Bardoxolone methyl by immunostaining relative to control
[16] = molecular target: T1, Transcription regulator protein BACH1 (Homo sapiens); test: Inhibition of Bach1 in normal human lung fibroblasts assessed as induction of HMOX protein expression at 0.312 uM incubated for 16 to 18 hrs in presence of 0.312 uM Nrf2 activator Bardoxolone methyl by immunostaining relative to control
[17] = molecular target: T1, Transcription regulator protein BACH1 (Homo sapiens); test: Inhibition of Bach1 in normal human lung fibroblasts assessed as induction of HMOX protein expression at 0.078 uM incubated for 16 to 18 hrs by immunostaining relative to control
[18] = molecular target: T1, Transcription regulator protein BACH1 (Homo sapiens); test: Inhibition of Bach1 in normal human lung fibroblasts assessed as induction of HMOX protein expression by measuring HMOX positive cells level at 0.078 uM incubated for 16 to 18 hrs by immunostaining relative to control DMSO; set-up: scale not given: the % may be the effect or the level left
[19] = molecular target: T1, Transcription regulator protein BACH1 (Homo sapiens); test: Inhibition of Bach1 in normal human lung fibroblasts assessed as induction of HMOX protein expression by measuring HMOX positive cells level at 0.156 uM in presence of 1 uM Nrf2 activator DMF incubated for 16 to 18 hrs by immunostaining relative to control DMSO; set-up: scale not given: the % may be the effect or the level left
[20] = molecular target: T1, Transcription regulator protein BACH1 (Homo sapiens); test: Inhibition of Bach1 in normal human lung fibroblasts assessed as induction of HMOX protein expression by measuring HMOX positive cells level at 0.156 uM in presence of 30 uM Nrf2 activator DMF incubated for 16 to 18 hrs by immunostaining relative to control DMSO; set-up: scale not given: the % may be the effect or the level left
[21] = molecular target: T1, Transcription regulator protein BACH1 (Homo sapiens); test: Inhibition of Bach1 in normal human lung fibroblasts assessed as induction of HMOX protein expression at 0.156 uM in presence of 0.03 uM Nrf2 activator DMF incubated for 16 to 18 hrs by immunostaining relative to control

SMILES | fold change (FC) [17] | Activity [18] | Activity [19] | Activity [20] | fold change (FC) [21] | other results
CNC(=O)c1ccc2c(c1)nc(Nc1nc3ccc(OC(F)(F)F)cc3s1)n2C | 1.92 |  |  |  |  | fold change (FC) [1]: 17.7; fold change (FC) [2]: 3.04; fold change (FC) [3]: 12.1; fold change (FC) [4]: 16.4; fold change (FC) [5]: 10; fold change (FC) [6]: 8.57; fold change (FC) [7]: 16.8; fold change (FC) [8]: 15.9; fold change (FC) [9]: 17.2; fold change (FC) [10]: 15.6; fold change (FC) [11]: 18.7; fold change (FC) [12]: 18.4; fold change (FC) [13]: 21.1; fold change (FC) [14]: 15.2; fold change (FC) [15]: 19.2; fold change (FC) [16]: 17.4
Cn1c(Nc2nc3ccc(C(F)(F)F)cc3s2)nc2cc(C(=O)NCCOCCO)ccc21 | 4.34 | 74% | 97.7% | 92.2% | 5.22 | 
CN(C)C(=O)CNC(=O)c1ccc2c(c1)nc(Nc1nc3ccc(C(F)(F)F)cc3s1)n2C | 1.59 | 7.12% | 66.7% | 84% | 1.99 | 
COCCNC(=O)c1cnc2c(c1)nc(Nc1nc3ccc(OC(F)(F)F)cc3s1)n2C | 1.46 | 8.23% | 57.7% | 98.2% | 1.46 | 

From ChEMBL document CHEMBL4421728, “Bach1 Inhibitors in Combination with Nrf2 Activators and Pharmaceutical Compositions Thereof” (2017)
